Reference: patent US11858879B2, “PARG inhibitors and method of use thereof” (City of Hope, priority 2017, dated 2024)

Molecular target: T1, PARG (Homo sapiens, UniProt Q86W56)
T1 construct: Recombinant full length PARG protein is generated from Sf9 insect cells; made in house; host or cells: Sf9 insect cells
Assay: PAR digestion assay (dot blotting with anti-PAR antibody)
Format: biochemical
Conditions: PARG incubated with PAR for 20 min at room temperature with or without inhibitors, dot blot with anti-PAR antibody
Procedure: Development of potent and cell-permeant PARG inhibitors via multi-step virtual screening and hierarchical selection. Forty candidates from National Cancer Institute (NCI) were selected to examine the efficacy of PARG inhibition by dot blot assay. PARG was incubated with PAR for 20 min at room temperature with or without inhibitors. PAR-digestion results were analyzed using dot blotting with anti-PAR antibody. […] PC and NC mean positive control (PAR only) and negative control (no inhibitor), respectively. IC50 value of compound 34 was measured by dot blotting with anti-PAR antibody in a dose course of compound 34.
PAR digestion assay: Recombinant PARG protein were incubated with PAR (10 μM, calculated as the ADP-ribose unit) and DMSO (Negative control, NC) or small molecules for 20 minutes at room temperature. Positive control (PC) only contains PAR in PBS. Samples were spotted onto a nitrocellulose membrane. The membrane was blocked with TBST buffer (0.15 M NaCl, 0.01 M Tris-HCl at pH 7.4, 0.1% Tween 20) supplemented with 5% milk and extensively washed with TBST. The membrane was examined by anti-PAR antibody.
Recombinant full length PARG protein is generated from Sf9 insect cells. Recombinant PAR is purified from a biochemical assay using PARP1. PARG is incubated with PAR in the presence of DMSO (Negative control, NC) or small chemical compounds for 20 minutes at room temperature. […]

T1 sequence (Q86W56 whole entry): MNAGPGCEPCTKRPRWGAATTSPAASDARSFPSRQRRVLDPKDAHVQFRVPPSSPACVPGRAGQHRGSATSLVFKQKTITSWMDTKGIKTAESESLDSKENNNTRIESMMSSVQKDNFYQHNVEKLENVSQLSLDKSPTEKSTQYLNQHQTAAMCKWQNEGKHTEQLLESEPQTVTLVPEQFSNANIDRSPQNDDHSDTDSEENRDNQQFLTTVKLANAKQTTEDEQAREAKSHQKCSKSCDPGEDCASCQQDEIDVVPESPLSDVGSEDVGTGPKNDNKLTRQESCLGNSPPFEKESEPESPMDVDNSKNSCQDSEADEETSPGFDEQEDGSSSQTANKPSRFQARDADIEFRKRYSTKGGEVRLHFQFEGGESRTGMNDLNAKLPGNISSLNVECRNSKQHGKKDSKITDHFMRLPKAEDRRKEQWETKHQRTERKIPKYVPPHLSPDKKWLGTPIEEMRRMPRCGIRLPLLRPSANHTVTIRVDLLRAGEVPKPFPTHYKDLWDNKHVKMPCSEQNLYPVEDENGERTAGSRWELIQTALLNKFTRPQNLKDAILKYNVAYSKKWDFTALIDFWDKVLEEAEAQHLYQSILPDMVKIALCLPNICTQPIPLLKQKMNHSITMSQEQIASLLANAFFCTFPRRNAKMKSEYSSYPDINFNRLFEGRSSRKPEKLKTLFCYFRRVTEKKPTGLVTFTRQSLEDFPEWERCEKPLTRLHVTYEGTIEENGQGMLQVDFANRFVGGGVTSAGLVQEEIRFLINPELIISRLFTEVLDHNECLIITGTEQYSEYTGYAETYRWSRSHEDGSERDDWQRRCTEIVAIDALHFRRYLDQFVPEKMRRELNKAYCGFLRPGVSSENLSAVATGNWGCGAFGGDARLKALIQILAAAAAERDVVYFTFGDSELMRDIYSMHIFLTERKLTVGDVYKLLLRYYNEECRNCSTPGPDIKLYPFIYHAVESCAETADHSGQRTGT

SMILES: Cc1ccc(S/N=C/c2c(O)ccc3ccccc23)cc1 [Compound 34]
- inhibitory activity for PARG: inhibitory activity
- inhibitory activity for PARG (listed as #34): good inhibitory activity
